Values quoted from earlier work, collected in US11406658B2, “Composition comprising glycyrrhizin and cosmetic and pharmaceutical uses thereof” (ATG 20 S.R.L., priority 2018, dated 2022).

Assays:
[1] = background art
[2] = oral administration; background art

SMILES	solubility [1]	bioavailability [2]
CC1(C)[C@@H](O[C@H]2O[C@H](C(=O)O)[C@@H](O)[C@H](O)[C@H]2O[C@@H]2O[C@H](C(=O)O)[C@@H](O)[C@H](O)[C@H]2O)CC[C@]2(C)[C@H]3C(=O)C=C4[C@@H]5C[C@@](C)(C(=O)O)CC[C@]5(C)CC[C@@]4(C)[C@]3(C)CC[C@@H]12.N [(mono)ammonium salt, (mono) ammonium glycyrrhizate]	soluble in diluted acidic or basic solutions	–
CC1(C)[C@@H](O[C@H]2OC(C(=O)O)[C@@H](O)C(O)C2O[C@H]2OC(C(=O)O)[C@@H](O)C(O)C2O)CC[C@]2(C)[C@H]3C(=O)C=C4[C@@H]5C[C@@](C)(C(=O)O)CC[C@]5(C)CC[C@@]4(C)[C@]3(C)CC[C@@H]12 (stereo partly shown) [Glycyrrhizin]	not particularly water-soluble	extremely low
CC1(C)[C@@H](O[C@H]2OC(C(=O)[O-])[C@@H](O)C(O)C2O[C@H]2OC(C(=O)[O-])[C@@H](O)C(O)C2O)CC[C@]2(C)[C@H]3C(=O)C=C4[C@@H]5C[C@@](C)(C(=O)O)CC[C@]5(C)CC[C@@]4(C)[C@]3(C)CC[C@@H]12.[K+].[K+] (stereo partly shown) [potassium salt, dipotassium glycyrrhizate]	water-soluble	–
